The subject of assay [1] is TOP-FLASH reporter in YAPC cells. As to the kind of experiment: TOP-FLASH reporter in YAPC PDAC cells. In kind it is cell-based. Particulars: KRAS-dependent YAPC cells. The text has this: (§1) (E) TOP-FLASH reporter activity in KRAS mutant PDAC cell lines following inhibition of GSK-3 kinase with increasing concentrations of the small molecule inhibitor BIO. PANC-1 are KRAS-independent cells and YAPC are KRAS-dependent cells. Luminescence counts (photons/sec) are plotted on the y-axis. Data are representative of three independent experiments+/−SEM.
(§2) (F) TOP-FLASH reporter dose-response relationships in PANC-1 and YAPC cells following combined treatment with GSK-3 and TAK1 inhibitors (BIO and 5Z-7-Oxozeaenok respectively). Luminescence counts (photons/sec) are plotted on the y-axis. Data are represented as the means of triplicates+/−SEM.
(§3) To further test the role of Wnt signaling in this context, experiments were performed using two KRAS mutant pancreatic cancer (PDAC) cell lines, PANC-1 and YAPC, which are APC wild-type. PANC-1 cells are KRAS-independent, whereas YAPC cells are KRAS-dependent, a distinction that has been linked to increased KRAS signaling in YAPC cells (Singh et al., 2009). […] In contrast, PANC-1 cells undergo stronger induction of TOP-FLASH activity with combined GSK-3 and TAK1 inhibition (FIG. 11F, […]). […] Finally, a constitutively-activated mutant of β-catenin (CTNNB1-CA) containing S33Y and S45A missense mutations was introduced into KRAS-dependent SW620 cells. This mutant caused partial losses in both KRAS and TAK1 dependencies (FIGS. 13A-C). […]

In assay [2] the test system is TOP-FLASH reporter in PANC-1 cells. As to the kind of experiment: TOP-FLASH reporter in PANC-1 PDAC cells. In kind it is cell-based. Particulars: KRAS-independent PANC-1 cells.
Text: as §1, §2, §3

Each structure is given as a SMILES string.

Consider `O=C1Nc2cc(Br)ccc2/C1=C1/Nc2ccccc2/C1=N\O` [BIO], for which the TOP-FLASH reporter induction result in assay [1] was “strong, dose-dependent TOP-FLASH reporter induction”; in assay [2], “weak induction”.
